Reference: ChEMBL document CHEMBL3585306, “Anti-HIV diarylpyrimidine-quinolone hybrids and their mode of action” (Bioorg Med Chem, 2015)
The source made the active and inactive calls. The calls are words filed in the database; no cut-off is given here.

Legend:
[1] = Cytotoxicity against mock-infected human MT4 cells after 5 days by MTT assay; format: cell-based
[2] = test system: Human immunodeficiency virus 1; assay: Antiviral activity against HIV1 harboring K103N/Y181C double mutant infected in human MT4 cells assessed as protection of cells from virus-induced cytopathic after 5 days by MTT assay; format: functional, organism-based; settings: Human immunodeficiency virus 1, MT4, 120 h
[3] = test system: Human immunodeficiency virus 1; assay: Antiviral activity against wild-type HIV1 3B infected in human MT4 cells assessed as protection of cells from virus-induced cytopathic after 5 days by MTT assay; format: functional, organism-based; settings: Human immunodeficiency virus 1, 3B, MT4, 120 h
[4] = Selectivity index, ratio of CC50 for mock-infected human MT4 cells to EC50 for HIV1 3B infected in human MT4 cells; format: toxicity, cell-based; settings: mock-infected (CC50) and HIV1 3B infected (EC50)
[5] = target: Human immunodeficiency virus type 1 reverse transcriptase (Human immunodeficiency virus 1, UniProt Q72547); assay: Inhibition of wild-type HIV1 Reverse transcriptase p66/p51 assessed as relative fluorescence signal after 40 mins
[6] = target: Human immunodeficiency virus type 1 integrase (Human immunodeficiency virus 1, UniProt Q7ZJM1); assay: Inhibition of HIV1 integrase
Chain of Human immunodeficiency virus type 1 integrase (Q7ZJM1 whole entry): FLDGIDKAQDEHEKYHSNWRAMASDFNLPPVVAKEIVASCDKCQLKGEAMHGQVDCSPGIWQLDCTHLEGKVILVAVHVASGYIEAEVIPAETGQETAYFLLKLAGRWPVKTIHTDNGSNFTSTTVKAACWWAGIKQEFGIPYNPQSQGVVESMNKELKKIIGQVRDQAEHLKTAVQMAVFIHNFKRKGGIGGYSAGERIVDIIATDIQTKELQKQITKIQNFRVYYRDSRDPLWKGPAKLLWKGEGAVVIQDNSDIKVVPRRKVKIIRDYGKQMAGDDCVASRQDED

[7] = target: Human immunodeficiency virus type 1 reverse transcriptase (Human immunodeficiency virus 1) (UniProt Q72547); assay: Inhibition of wild-type HIV1 Reverse transcriptase p66/p51 assessed as fluorescence signal by time-of-addition assay

SMILES	CC50 at 120 h [1]	EC50 [2]	EC50 [3]	selectivity ratio [4]	IC50 [5]	IC50 [6]	inhibition [7]
Cc1cc(C#N)cc(C)c1Oc1nc(Nc2ccc(C#N)cc2)nc(N)c1Br [ETRAVIRINE]	14.2 µM	0.014 µM	1.9 nM	–	–	–	–
O=C1Nc2ccc(Cl)cc2[C@@](C#CC2CC2)(C(F)(F)F)O1 [EFAVIRENZ]	> 6.5 µM	0.14 µM	–	–	–	–	–
N#Cc1ccc(Nc2nccc(Oc3ccc4c(=O)c(C(=O)O)cn(C5CCCCC5)c4c3)n2)cc1	3.22 µM	> 3.22 µM	> 3220 nM	< 1	–	–	–
CCCCn1cc(C(=O)O)c(=O)c2ccc(Oc3ccnc(Nc4ccc(C#N)cc4)n3)cc21	≥ 199 µM	> 199 µM	330 nM	≥ 604	3.49 µM	32.5 µM	Active
CCCCn1cc(C(=O)O)c(=O)c2ccc(Nc3ccnc(Nc4ccc(C#N)cc4)n3)cc21	13.6 µM	> 13.6 µM	> 13600 nM	< 1	–	–	–
N#Cc1ccc(Nc2nccc(Nc3ccc4c(=O)c(C(=O)O)cn(C5CCCCC5)c4c3)n2)cc1	2.18 µM	> 2.18 µM	> 2180 nM	< 1	–	–	–
CCn1cc(C(=O)O)c(=O)c2ccc(Nc3ccnc(Nc4ccc(C#N)cc4)n3)cc21	123 µM	> 123 µM	> 123000 nM	< 1	7.07 µM	–	–
COc1cc2c(cc1Cc1cccc(Cl)c1F)c(=O)c(C(=O)O)cn2[C@H](CO)C(C)C	4.6 µM	0.0022 µM	3.1 nM	–	–	–	–
CCn1cc(C(=O)O)c(=O)c2ccc(Oc3ccnc(Nc4ccc(C#N)cc4)n3)cc21	246 µM	> 246 µM	280 nM	880	7.15 µM	–	Active
CCC(C)n1cc(C(=O)O)c(=O)c2ccc(Oc3ccnc(Nc4ccc(C#N)cc4)n3)cc21 (stereo unspecified)	> 274 µM	> 274 µM	> 274000 nM	1	–	–	–
N#Cc1ccc(Nc2nccc(Oc3ccc4c(=O)c(C(=O)O)cn(C5CC5)c4c3)n2)cc1	≥ 221 µM	> 221 µM	> 221000 nM	≤ 1	–	–	–
Cc1cn([C@H]2C[C@H](N=[N+]=[N-])[C@@H](CO)O2)c(=O)[nH]c1=O [ZIDOVUDINE]	> 94 µM	0.0052 µM	5.6 nM	16800	–	–	–
CCCn1cc(C(=O)O)c(=O)c2ccc(Oc3ccnc(Nc4ccc(C#N)cc4)n3)cc21	245 µM	> 245 µM	≥ 430 nM	≤ 569	9.12 µM	–	–
N#Cc1ccc(Nc2nccc(Oc3ccc4c(=O)c(C(=O)O)cn(C5CCCC5)c4c3)n2)cc1	4.96 µM	> 4.96 µM	980 nM	5	6.08 µM	–	–
Cc1ccnc2c1NC(=O)c1cccnc1N2C1CC1 [NEVIRAPINE]	> 15 µM	≥ 11 µM	244 nM	–	–	–	–
CC(C)n1cc(C(=O)O)c(=O)c2ccc(Nc3ccnc(Nc4ccc(C#N)cc4)n3)cc21	10.9 µM	> 10.9 µM	> 10900 nM	< 1	–	–	–
CC(C)n1cc(C(=O)O)c(=O)c2ccc(Oc3ccnc(Nc4ccc(C#N)cc4)n3)cc21	> 283 µM	> 283 µM	> 283000 nM	1	–	–	–
CC(C)Cn1cc(C(=O)O)c(=O)c2ccc(Oc3ccnc(Nc4ccc(C#N)cc4)n3)cc21	> 274 µM	> 274 µM	1160 nM	> 237	14 µM	–	Active
CCCn1cc(C(=O)O)c(=O)c2ccc(Nc3ccnc(Nc4ccc(C#N)cc4)n3)cc21	189 µM	> 189 µM	> 189000 nM	< 1	–	–	–
